The source of these data is doi:10.1101/2022.12.19.520966v1 (biorxiv, 2022).

Experiment in all cases: HTRF IP1 accumulation
Format in all cases: cell-based

For assay [1], the target named is T1, T1R2/T1R3 (human sweet taste receptor) (Homo sapiens, UniProt Q7RTX0+Q8TE23).
T1 sequence (Q8TE23 20-839): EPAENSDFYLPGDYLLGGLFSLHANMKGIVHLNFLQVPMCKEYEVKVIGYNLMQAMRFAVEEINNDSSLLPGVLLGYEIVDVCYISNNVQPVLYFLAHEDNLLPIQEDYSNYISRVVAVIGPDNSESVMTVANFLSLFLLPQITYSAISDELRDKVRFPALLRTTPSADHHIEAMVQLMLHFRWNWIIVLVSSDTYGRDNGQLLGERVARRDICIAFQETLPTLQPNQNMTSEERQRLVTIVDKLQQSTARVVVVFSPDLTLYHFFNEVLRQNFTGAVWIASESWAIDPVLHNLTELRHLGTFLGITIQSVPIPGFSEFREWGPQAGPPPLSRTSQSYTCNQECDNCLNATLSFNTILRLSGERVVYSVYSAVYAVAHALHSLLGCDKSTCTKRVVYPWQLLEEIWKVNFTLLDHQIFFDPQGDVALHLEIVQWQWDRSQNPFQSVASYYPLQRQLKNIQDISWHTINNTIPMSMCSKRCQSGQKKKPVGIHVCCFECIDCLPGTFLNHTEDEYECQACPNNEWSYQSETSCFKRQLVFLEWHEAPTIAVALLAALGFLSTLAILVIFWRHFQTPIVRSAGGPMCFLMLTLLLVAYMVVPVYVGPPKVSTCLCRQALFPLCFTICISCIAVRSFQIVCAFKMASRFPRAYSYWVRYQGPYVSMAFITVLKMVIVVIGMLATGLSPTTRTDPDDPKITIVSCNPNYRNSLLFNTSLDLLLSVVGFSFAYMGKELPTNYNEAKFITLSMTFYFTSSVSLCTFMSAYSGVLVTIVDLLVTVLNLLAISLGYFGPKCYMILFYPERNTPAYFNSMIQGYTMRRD
T1 sequence (Q7RTX0 21-852): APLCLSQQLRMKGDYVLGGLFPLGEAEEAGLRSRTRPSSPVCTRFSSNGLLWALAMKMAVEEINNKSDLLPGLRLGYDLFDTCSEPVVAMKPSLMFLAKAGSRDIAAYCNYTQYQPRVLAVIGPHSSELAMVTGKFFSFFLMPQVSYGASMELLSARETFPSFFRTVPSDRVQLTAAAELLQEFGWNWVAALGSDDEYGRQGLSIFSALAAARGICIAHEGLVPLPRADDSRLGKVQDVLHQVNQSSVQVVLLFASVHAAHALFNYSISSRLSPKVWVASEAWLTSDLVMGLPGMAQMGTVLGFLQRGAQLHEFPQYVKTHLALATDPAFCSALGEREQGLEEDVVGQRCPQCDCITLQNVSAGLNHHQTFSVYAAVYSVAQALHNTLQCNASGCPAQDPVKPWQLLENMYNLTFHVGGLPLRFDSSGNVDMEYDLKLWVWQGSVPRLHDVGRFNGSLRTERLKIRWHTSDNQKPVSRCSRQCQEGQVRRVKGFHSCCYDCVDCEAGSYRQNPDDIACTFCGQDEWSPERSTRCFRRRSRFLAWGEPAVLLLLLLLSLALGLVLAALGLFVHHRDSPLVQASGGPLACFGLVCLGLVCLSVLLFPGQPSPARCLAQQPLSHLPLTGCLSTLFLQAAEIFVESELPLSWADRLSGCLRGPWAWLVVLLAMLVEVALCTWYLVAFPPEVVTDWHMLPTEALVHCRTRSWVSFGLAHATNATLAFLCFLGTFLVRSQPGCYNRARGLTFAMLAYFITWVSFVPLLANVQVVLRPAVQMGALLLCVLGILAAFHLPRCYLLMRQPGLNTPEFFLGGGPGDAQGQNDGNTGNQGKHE
As to conditions: agonist; Galpha16gus44 co-transfected; 0.05 M LiCl, 5 min exposure; unreliable.

In assay [2] the target is T1, T1R2/T1R3 (human sweet taste receptor). Conditions: agonist; Galpha16gus44 co-transfected; 0.05 M LiCl, 5 min exposure.
Assay [3] deals with T2, T1R2/T1R3 (human sweet taste receptor) (Homo sapiens, UniProt Q7RTX0+Q8TE23, Q8TE23:R317G/Q8TE23:I486V).
T2 sequence (Q8TE23 20-839 R317G/I486V): T1 sequence (Q8TE23 20-839) with R298G, I467V
T2 sequence (Q7RTX0 21-852): T1 sequence (Q7RTX0 21-852)
Conditions: agonist; Galpha16gus44 co-transfected; 0.05 M LiCl, 5 min exposure.

Changes are numbered by the printed parent chain.

Regarding `OC[C@H]1OC(O)[C@H](O)[C@@H](O)[C@@H]1O` (stereo partly drawn) [D-glucose], the Emax (usually the greatest response seen or fitted, relative to the assay's reference) in assay [1] worked out at 100%.

In the case of `OC[C@@H]1OC(O)[C@@H](O)[C@H](O)[C@H]1O` (stereo partly drawn) [L-glucose], the results for the EC50 in assay [2] and in assay [3] were 2 mM and roughly 15 mM, respectively.
